# Data from ChEMBL document CHEMBL1201862, “PubChem BioAssay data set” (2004).
#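 Cells were grown in 96-well plates and exposed to each compound for 48 hours at five concentrations; endpoints were interpolated linearly between bracketing concentrations, or set to the highest concentration if not reached. The concentration for 50% growth inhibition is given as GI50.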 Activity calls are given as the source filed them. Rule as the data show it: active = GI50 up to about 1.1 µM and inactive = higher.
# Experiments:
# Assay in all cases: growth of human tumour cells (NCI), 48 h
# Malme-3M = system: Malme-3M
# OVCAR-5 = system: OVCAR-5
# SN12C = system: SN12C
# NCI-H460 = system: NCI-H460
# ACHN = system: ACHN
# TK-10 = system: TK-10
# CCRF-CEM = system: CCRF-CEM
# SW-620 = system: SW-620
# SK-MEL-5 = system: SK-MEL-5
# KM12 = system: KM12
# RXF 393 = system: RXF 393
# MDA-N = system: MDA-N
# 786-0 = system: 786-0
# CAKI-1 = system: CAKI-1
# UO-31 = system: UO-31
# K562 = system: K562
# OVCAR-8 = system: OVCAR-8
# HCT-15 = system: HCT-15
# HL-60 = system: HL-60
# MDA-MB-231 = system: MDA-MB-231
# NCI-H23 = system: NCI-H23
# MDA-MB-435 = system: MDA-MB-435
# HOP-92 = system: HOP-92
# SF-268 = system: SF-268
# MOLT-4 = system: MOLT-4
# A549 = system: A549
# IGROV-1 = system: IGROV-1
# HCT-116 = system: HCT-116
# SK-OV-3 = system: SK-OV-3
# SF-539 = system: SF-539
# HCC 2998 = system: HCC 2998
# NCI-H522 = system: NCI-H522
# OVCAR-3 = system: OVCAR-3
# BT-549 = system: BT-549
# U-251 = system: U-251
# SNB-19 = system: SNB-19
# T47D = system: T47D
# UACC-257 = system: UACC-257
# OVCAR-4 = system: OVCAR-4
# A498 = system: A498
# DU-145 = system: DU-145
# NCI-H226 = system: NCI-H226
# LOX IMVI = system: LOX IMVI
# COLO 205 = system: COLO 205
# NCI/ADR-RES = system: NCI/ADR-RES
# PC-3 = system: PC-3
# EKVX = system: EKVX
# MCF7 = system: MCF7
# SK-MEL-2 = system: SK-MEL-2
# HT-29 = system: HT-29
# M14 = system: M14
# SK-MEL-28 = system: SK-MEL-28
# Hs-578T = system: Hs-578T
# SF-295 = system: SF-295
# UACC-62 = system: UACC-62
# HOP-62 = system: HOP-62
# SR = system: SR
# SNB-75 = system: SNB-75
# RPMI-8226 = system: RPMI-8226
smiles,measurement,setting,value
N#CC(Nc1ccccc1)c1ccc(C(C#N)Nc2ccccc2)cc1 (configuration not stated),GI50,Malme-3M,> 100 µM (inactive)
same,GI50,OVCAR-5,> 100 µM (inactive)
same,GI50,SN12C,46.8 µM (inactive)
same,GI50,NCI-H460,44.6 µM (inactive)
same,GI50,ACHN,22.3 µM (inactive)
same,GI50,TK-10,28.4 µM (inactive)
same,GI50,CCRF-CEM,5.07 µM (inactive)
same,GI50,SW-620,20.2 µM (inactive)
same,GI50,SK-MEL-5,20.3 µM (inactive)
same,GI50,KM12,> 100 µM (inactive)
same,GI50,RXF 393,> 100 µM (inactive)
same,GI50,MDA-N,13.2 µM (inactive)
same,GI50,786-0,36.5 µM (inactive)
same,GI50,CAKI-1,61.4 µM (inactive)
same,GI50,UO-31,21.1 µM (inactive)
same,GI50,K562,0.724 µM (active)
same,GI50,OVCAR-8,> 100 µM (inactive)
same,GI50,HCT-15,18.2 µM
same,GI50,HL-60,5.79 µM (inactive)
same,GI50,MDA-MB-231,> 100 µM (inactive)
same,GI50,NCI-H23,41.5 µM (inactive)
same,GI50,MDA-MB-435,13.7 µM (inactive)
same,GI50,HOP-92,28.1 µM (inactive)
same,GI50,SF-268,> 100 µM (inactive)
same,GI50,MOLT-4,32.2 µM (inactive)
same,GI50,A549,> 100 µM (inactive)
same,GI50,IGROV-1,34.6 µM (inactive)
same,GI50,HCT-116,16.7 µM (inactive)
same,GI50,SK-OV-3,> 100 µM (inactive)
same,GI50,SF-539,25.7 µM (inactive)
same,GI50,HCC 2998,30.3 µM (inactive)
same,GI50,NCI-H522,> 100 µM (inactive)
same,GI50,OVCAR-3,35.9 µM (inactive)
same,GI50,BT-549,38.6 µM (inactive)
same,GI50,U-251,25.4 µM (inactive)
same,GI50,SNB-19,44.5 µM (inactive)
same,GI50,T47D,24.8 µM (inactive)
same,GI50,UACC-257,81.3 µM (inactive)
same,GI50,OVCAR-4,> 100 µM (inactive)
same,GI50,A498,> 100 µM (inactive)
same,GI50,DU-145,44.1 µM (inactive)
same,GI50,NCI-H226,> 100 µM (inactive)
same,GI50,LOX IMVI,1.17 µM (inactive)
same,GI50,COLO 205,27.1 µM (inactive)
same,GI50,NCI/ADR-RES,46.7 µM (inactive)
same,GI50,PC-3,28.8 µM (inactive)
same,GI50,EKVX,> 100 µM (inactive)
same,GI50,MCF7,29 µM (inactive)
same,GI50,SK-MEL-2,> 100 µM (inactive)
same,GI50,HT-29,20.8 µM (inactive)
same,GI50,M14,13.7 µM (inactive)
same,GI50,SK-MEL-28,41.2 µM (inactive)
same,GI50,Hs-578T,> 100 µM (inactive)
same,GI50,SF-295,40 µM (inactive)
same,GI50,UACC-62,3.57 µM (inactive)
O=C1OC(c2ccco2)=N/C1=C\c1ccc(Cl)c(Cl)c1,GI50,Malme-3M,86.1 µM (inactive)
same,GI50,OVCAR-5,> 100 µM (inactive)
same,GI50,SN12C,> 100 µM (inactive)
same,GI50,NCI-H460,88.7 µM (inactive)
same,GI50,ACHN,60 µM (inactive)
same,GI50,TK-10,66.7 µM (inactive)
same,GI50,CCRF-CEM,> 100 µM (inactive)
same,GI50,SW-620,> 100 µM (inactive)
same,GI50,SK-MEL-5,> 100 µM (inactive)
same,GI50,KM12,> 100 µM (inactive)
same,GI50,RXF 393,22 µM (inactive)
same,GI50,MDA-N,> 100 µM (inactive)
same,GI50,786-0,38 µM (inactive)
same,GI50,CAKI-1,91 µM (inactive)
same,GI50,K562,> 100 µM (inactive)
same,GI50,OVCAR-8,56.2 µM (inactive)
same,GI50,HCT-15,> 100 µM
same,GI50,HL-60,> 100 µM (inactive)
same,GI50,MDA-MB-231,> 100 µM (inactive)
same,GI50,NCI-H23,> 100 µM (inactive)
same,GI50,MDA-MB-435,> 100 µM (inactive)
same,GI50,HOP-92,> 100 µM (inactive)
same,GI50,SF-268,59.6 µM (inactive)
same,GI50,MOLT-4,> 100 µM (inactive)
same,GI50,A549,62.1 µM (inactive)
same,GI50,IGROV-1,> 100 µM (inactive)
same,GI50,HOP-62,27.4 µM (inactive)
same,GI50,HCT-116,72.8 µM (inactive)
same,GI50,SK-OV-3,47.2 µM (inactive)
same,GI50,SF-539,50 µM (inactive)
same,GI50,HCC 2998,70.8 µM (inactive)
same,GI50,NCI-H522,51.4 µM (inactive)
same,GI50,OVCAR-3,89.7 µM (inactive)
same,GI50,BT-549,> 100 µM (inactive)
same,GI50,U-251,57.7 µM (inactive)
same,GI50,SNB-19,> 100 µM (inactive)
same,GI50,T47D,40.9 µM (inactive)
same,GI50,UACC-257,> 100 µM (inactive)
same,GI50,OVCAR-4,85.1 µM (inactive)
same,GI50,A498,> 100 µM (inactive)
same,GI50,DU-145,98.6 µM (inactive)
same,GI50,NCI-H226,57.5 µM (inactive)
same,GI50,LOX IMVI,> 100 µM (inactive)
same,GI50,COLO 205,> 100 µM (inactive)
same,GI50,SR,> 100 µM (inactive)
same,GI50,SNB-75,53.8 µM (inactive)
same,GI50,PC-3,> 100 µM (inactive)
same,GI50,EKVX,75.9 µM (inactive)
same,GI50,MCF7,3.67 µM (inactive)
same,GI50,SK-MEL-2,> 100 µM (inactive)
same,GI50,HT-29,> 100 µM (inactive)
same,GI50,M14,> 100 µM (inactive)
same,GI50,SK-MEL-28,> 100 µM (inactive)
same,GI50,Hs-578T,36.1 µM (inactive)
same,GI50,SF-295,> 100 µM (inactive)
same,GI50,UACC-62,> 100 µM (inactive)
same,GI50,RPMI-8226,> 100 µM (inactive)
